In patent US10603319B2, “Pyrimidine derivatives and their use in treating or preventing a respiratory syncytial virus infection” (REVIRAL LIMITED, priority 2016, dated 2020) one finds half-life and IC50 data, which are given here for one molecule.

Each structure is given as a SMILES string. Several values for one entry are separate records, joined by “and”; a condition that tells them apart may be missing. Equal entries are not always repeated.

The nature of data set [1]: Liver microsomal stability, rat. Type of data set: in vitro ADME, Sprague Dawley rats. Particulars: male, Sprague Dawley, pooled liver microsomes, pH 7.4, 0.5 mg/mL protein, read-out: Liver Microsomal Stability (T1/2/mins) rat. As for the experimental part: (§1) Microsomal Incubation: Experimental Procedure
(§2) Pooled human liver microsomes (pooled male and female), pooled rat liver microsomes (male Sprague Dawley rats) and pooled dog liver microsomes (male Beagle dog) are purchased from a reputable commercial supplier and stored at −80° C. prior to use.
(§3) Microsomes (final protein concentration 0.5 mg/mL), 0.1 M phosphate buffer pH 7.4 and test compound (final substrate concentration 3 μM; final DMSO concentration 0.25%) are pre-incubated at 37° C. prior to the addition of NADPH (final concentration 1 mM) to initiate the reaction. The final incubation volume is 50 μL. A control incubation is included for each compound tested where 0.1 M phosphate buffer pH 7.4 is added instead of NADPH (minus NADPH). Two control compounds are included with each species. All incubations are performed singularly for each test compound.
(§4) Compounds are incubated for 0, 5, 15, 30 and 45 min. The control (minus NADPH) is incubated for 45 min only. […] Following protein precipitation, the sample supernatants are combined in cassettes of up to 4 compounds, internal standard is added and samples analysed by LC-MS/MS. From a plot of ln peak area ratio (compound peak area/internal standard peak area) against time, the gradient of the line is determined. Subsequently, half-life and intrinsic clearance are calculated

A further data set concerns RSV A2 VR-1540. Briefly: Plaque Reduction Assay 2 (HEp-2 cells, virospot count). Format: cell-based. As to conditions: human respiratory syncytial virus, 24 h; RSV A2, HEp-2 cells, 1 day. An excerpt:
Plaque Reduction Assay 2:
This RSV plaque reduction assay is an infectivity assay which allows quantification of the number of infectious units in a distinct foci of RSV infection. This is indicated by zones of viral antigen detected by specific antibody staining within a monolayer of otherwise healthy tissue culture cells. As each plaque originates from a single infectious virus particle an accurate calculation of the anti-viral effect can be obtained by counting plaques in the presence and absence of an anti-viral compound. HEp-2 cells (ATCC, CCL23) were passaged in flasks and seeded in 96-well plates in DMEM containing antibiotics and supplemented with 10% FBS. During inoculation and subsequent incubation, cells were cultured in DMEM containing 3% FBS. 100 plaque forming unit (PFU)/well of RSV (RSV A2 VR-1540) was mixed with ten serial dilutions of compound. Subsequently, 100 μL of the virus/compound mixtures was added to confluent HEp-2 cell monolayers. The cells and virus/compound mixtures were incubated at 35° C. in a humidified 5% CO2 incubator for 1 day.
Cells were washed twice with PBS before adding 50% v/v EtOH/MeOH, and then stored at −20° C. On the day of the staining, fixative was first removed from the plates. Plates were washed 3× with PBS. A pre-titrated amount of the primary antibody was added in 60 μL PBS/2% milk powder, and plates incubated for 1 h at rt. The plates were washed 3× with PBS/0.05% Tween20 before addition of goat anti-mouse horse radish peroxidase in 60 μL PBS/2% milk powder, and incubated for 1 h at rt. Following three wash steps with PBS/0.05% Tween20, 60 μL ready-to-use TrueBlue was added and plates were incubated at rt for 10-15 min before adding MilliQ water. Plates were washed once with water, incubated for 30-60 min and after removal of water, air-dried in the dark.
Plates were scanned and analyzed using the Immunospot S6 UV analyzer, which is equipped with BioSpot analysis software for counting immunostained plaques (virospots). Plaque counts were used to calculate % infection relative to the mean of the spot count (SC) in the virus control wells for RSV. IC50/IC90 values were calculated as 50% or 90% reduction in signal, respectively, by interpolation of inhibition curves fitted with a 4-parameter nonlinear regression with a variable slope in GraphPad 5.0 (Prism).

The nature of data set [2]: Liver microsomal stability, dog. As to conditions: male, Beagle, pooled liver microsomes, pH 7.4, 0.5 mg/mL protein, read-out: Liver Microsomal Stability (T1/2/mins) dog. Type of data set: in vitro ADME. As for the experimental part:
as §1, §2, §3, §4

For the next data set, the system named is RSV A2. Briefly: Plaque Reduction Assay 1 (Vero cells, immunostaining). Type of data set: cell-based. As to conditions: two replicate values, read-out: RSV Plaque Reduction assays A2 (PRNT1) (n = 2) IC50. As to the method: Plaque Reduction Assay 1: Vero cells were seeded in 96-well plates in a volume of 100 μL of Optimem supplemented with 3% FCS at a concentration of 4×10^4 cells per well. After an overnight incubation at 37° C. in a humidified 5% CO2 atmosphere, the monolayer of cells should be approximately 90% confluent. Antiviral compounds were titrated in pre-warmed Serum Free (SF) Optimem in a U-bottom 96 well plate. For compounds in a DMSO solution, titration in 100% DMSO was performed first and each concentration added individually to a 2× final concentration at 4% DMSO in SF media before mixing with virus (2% final DMSO with virus). Media was then removed from cells and replaced with PBS (100 μl/well). RSV stock was thawed and diluted in SF Optimem media to 4000 PFU/mLl. An equal volume of virus was added to compounds on the titration plate. PBS was removed from cells which were then inoculated with the virus/compound solution (50 μL/well). Cells were incubated for 2 h in a 37° C.+5% CO2 humidified incubator to allow infection. Inoculum was removed and media (Optimem+1% FCS) added to cells (100 μl/well). Cells were subsequently incubated for 48 h at 37° C.+5% CO2 in a humidified incubator. Immunostaining Procedure: Media was removed from cells and the monolayer washed with PBS. Cells were fixed with ice cold 80% Acetone in PBS (100 μl/well) for 20 mins at −20° C. Fixative was removed and cells are dried for 30 mins with plates inverted. Blocking solution (5% skim milk powder in PBS-T) was added to cells (150 μL/well) and plates were incubated for 30 mins at room temperature. Blocking solution was removed and plates washed once with PBS-T. Primary antibody in blocking solution was added to plates (50 μl/well) and incubated for 1 h at 37° C. Plates were then washed 3 times with PBS-T. Secondary antibody in blocking solution was added to plates ([…]) and incubated for 1 h at 37° C. in the dark. Plates were washed as above and then dried for 10 mins. Plates were scanned on the Odyssey Imager (Li-Cor Biosciences) at a resolution of […], medium quality and level 5 intensity in the […]. Data Analysis: Images obtained were saved and plaque numbers counted with the aid of computer imaging software. EC50 values for compounds were derived from dose response curves [three variable log(inhibitor) vs response] obtained using Graphpad Prism software.

Turning to `NC1CCN(c2ncc(CN3C(=O)C4(CC4)c4ccc(F)cc43)c(N[C@H]3CC[C@H](O)CC3)n2)C1` (stereo partly shown) [Compound 2, 1′-((2-(3-Aminopyrrolidin-1-yl)-4-(((1r,4r)-4-hydroxycyclohexyl)amino)pyrimidin-5-yl)methyl)-6′-fluorospiro[cyclopropane-1,3′-indolin]-2′-one], the figures for the half-life at 3 μM in data set [1] and in data set [2] were 130 min and > 240 min, respectively. Besides, the IC50 in the data set with RSV A2 VR-1540 was 58 nM; with RSV A2, 18.9 nM and 4.63 nM.
